Laboratory results taken from patent US20090286806A1, “ISOXAZOLE DERIVATIVES AS CALCIUM CHANNEL BLOCKERS” (priority 2006, published 2009).
pIC50: −log10 of the molar value. Read-outs that look alike come from different tables or passages of the source.

Columns and labels:
[1] = target: T1, rat brain N-type calcium channel subunits (α1B+α2δ+β1b cDNA subunits) (Rattus norvegicus, UniProt Q02294); assay: N-type calcium channel block, whole cell patch clamp in transfected HEK 293 cells; type: cell-based; settings: holding potential −80 mV to +10 mV
T1 construct: expressed in transfected cells; host or cells: HEK 293
T1 sequence (Q02294 whole entry): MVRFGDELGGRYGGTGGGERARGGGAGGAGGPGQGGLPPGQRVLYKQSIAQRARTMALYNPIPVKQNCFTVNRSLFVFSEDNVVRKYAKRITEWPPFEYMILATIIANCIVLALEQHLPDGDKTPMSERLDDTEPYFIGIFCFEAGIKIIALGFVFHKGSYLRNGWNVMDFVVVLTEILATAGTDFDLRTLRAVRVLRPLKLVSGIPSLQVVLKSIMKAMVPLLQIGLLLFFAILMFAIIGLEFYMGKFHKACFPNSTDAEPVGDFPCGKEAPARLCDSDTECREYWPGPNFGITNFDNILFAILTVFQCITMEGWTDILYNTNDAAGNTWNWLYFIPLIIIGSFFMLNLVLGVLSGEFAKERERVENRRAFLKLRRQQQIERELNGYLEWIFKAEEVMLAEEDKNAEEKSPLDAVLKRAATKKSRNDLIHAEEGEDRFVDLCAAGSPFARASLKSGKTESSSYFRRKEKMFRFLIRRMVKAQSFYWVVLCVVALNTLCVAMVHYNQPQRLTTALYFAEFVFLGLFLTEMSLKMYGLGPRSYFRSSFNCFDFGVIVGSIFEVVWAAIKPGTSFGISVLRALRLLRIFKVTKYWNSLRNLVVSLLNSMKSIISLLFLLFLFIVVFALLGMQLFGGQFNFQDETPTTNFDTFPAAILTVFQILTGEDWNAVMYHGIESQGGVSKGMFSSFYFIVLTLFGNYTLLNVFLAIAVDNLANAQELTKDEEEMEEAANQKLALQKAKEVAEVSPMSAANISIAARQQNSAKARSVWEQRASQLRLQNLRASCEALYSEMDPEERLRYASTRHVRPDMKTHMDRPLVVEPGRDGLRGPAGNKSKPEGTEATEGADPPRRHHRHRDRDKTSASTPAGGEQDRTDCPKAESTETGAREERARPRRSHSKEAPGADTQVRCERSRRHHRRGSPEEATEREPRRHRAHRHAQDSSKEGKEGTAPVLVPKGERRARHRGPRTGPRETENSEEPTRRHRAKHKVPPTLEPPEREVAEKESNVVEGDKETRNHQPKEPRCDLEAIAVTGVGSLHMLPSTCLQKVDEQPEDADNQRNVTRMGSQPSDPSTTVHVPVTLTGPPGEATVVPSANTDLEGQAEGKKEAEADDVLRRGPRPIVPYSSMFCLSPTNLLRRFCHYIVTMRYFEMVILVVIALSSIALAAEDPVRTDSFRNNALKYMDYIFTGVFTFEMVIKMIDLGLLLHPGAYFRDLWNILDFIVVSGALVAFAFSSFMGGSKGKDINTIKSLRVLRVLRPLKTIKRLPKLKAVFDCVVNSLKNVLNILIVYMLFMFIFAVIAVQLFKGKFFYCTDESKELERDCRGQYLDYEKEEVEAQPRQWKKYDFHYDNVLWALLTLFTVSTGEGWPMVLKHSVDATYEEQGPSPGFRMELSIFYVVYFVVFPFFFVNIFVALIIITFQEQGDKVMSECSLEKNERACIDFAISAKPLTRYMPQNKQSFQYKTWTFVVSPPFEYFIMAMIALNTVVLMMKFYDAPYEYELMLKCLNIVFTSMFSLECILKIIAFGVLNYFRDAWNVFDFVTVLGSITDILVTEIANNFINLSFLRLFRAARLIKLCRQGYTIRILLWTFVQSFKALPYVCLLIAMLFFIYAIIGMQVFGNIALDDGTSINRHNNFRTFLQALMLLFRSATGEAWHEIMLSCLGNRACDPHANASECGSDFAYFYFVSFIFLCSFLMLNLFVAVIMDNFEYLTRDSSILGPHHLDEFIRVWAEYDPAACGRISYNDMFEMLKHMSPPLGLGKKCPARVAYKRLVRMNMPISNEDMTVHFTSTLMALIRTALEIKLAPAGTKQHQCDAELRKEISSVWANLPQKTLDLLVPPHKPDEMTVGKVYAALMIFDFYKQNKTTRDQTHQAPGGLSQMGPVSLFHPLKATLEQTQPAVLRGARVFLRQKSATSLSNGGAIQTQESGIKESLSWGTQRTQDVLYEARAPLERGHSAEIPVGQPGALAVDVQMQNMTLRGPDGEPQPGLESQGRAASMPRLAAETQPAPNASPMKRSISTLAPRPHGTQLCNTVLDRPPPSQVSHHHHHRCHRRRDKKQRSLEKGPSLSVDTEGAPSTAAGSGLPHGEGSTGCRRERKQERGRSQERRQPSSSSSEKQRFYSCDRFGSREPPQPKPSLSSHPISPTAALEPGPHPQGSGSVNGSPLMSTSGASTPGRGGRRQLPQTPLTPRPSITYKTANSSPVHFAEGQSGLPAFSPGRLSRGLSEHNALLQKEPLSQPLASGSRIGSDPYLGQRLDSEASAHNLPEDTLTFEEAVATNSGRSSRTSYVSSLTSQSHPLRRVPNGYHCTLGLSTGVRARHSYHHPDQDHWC
Description: N-type calcium channel blocking activity was assayed in human embryonic kidney cells, HEK 293, stably transfected with the rat brain N-type calcium channel subunits (α1B+α2δ+β1b cDNA subunits). Alternatively, N-type calcium channels (α1B+α2δ+β1b cDNA subunits), L-type channels (α1C+α2δ+β1b cDNA subunits) and P/Q-type channels (α1A+α2δ+β1b cDNA subunits) were transiently expressed in HEK 293 cells. Briefly, cells were cultured in Dulbecco's modified eagle medium (DMEM) supplemented with 10% fetal bovine serum, 200 U/ml penicillin and 0.2 mg/ml streptomycin at 37° C. with 5% CO2. At 85% confluency cells were split with 0.25% trypsin/1 mM EDTA and plated at 10% confluency on glass coverslips. At 12 hours the medium was replaced and the cells transiently transfected using a standard calcium phosphate protocol and the appropriate calcium channel cDNA's. Fresh DMEM was supplied and the cells transferred to 28° C./5% CO2. Cells were incubated for 1 to 2 days prior to whole cell recording.
Whole cell patch clamp experiments were performed using an Axopatch 200B amplifier (Axon Instruments, Burlingame, Calif.) linked to a personal computer equipped with pCLAMP software. The external and internal recording solutions contained, respectively, 5 mM BaCl2, 10 mM MgCl2, 10 mM HEPES, 40 mM TEACl, 10 mM glucose, 87.5 mM CsCl (pH 7.2) and 108 mM CsMS, 4 mM MgCl2, 9 mM EGTA, 9 mM HEPES (pH 7.2). Currents were typically elicited from a holding potential of −80 mV to +10 mV using Clampex software (Axon Instruments). Typically, currents were first elicited with low frequency stimulation (0.067 Hz) and allowed to stabilize prior to application of the compounds. The compounds were then applied during the low frequency pulse trains for two to three minutes to assess tonic block, and subsequently the pulse frequency was increased to 0.2 Hz to assess frequency dependent block. Data were analyzed using Clampfit (Axon Instruments) and SigmaPlot 4.0 (Jandel Scientific).

[2] = target: T2, human α1G T-type channels (Homo sapiens, UniProt O43497); assay: T-type calcium channel block, whole-cell patch clamp in HEK cell lines; type: cell-based; settings: HEK cells
T2 construct: expressed in transfected cells; host or cells: HEK cell lines
T2 sequence (O43497 whole entry): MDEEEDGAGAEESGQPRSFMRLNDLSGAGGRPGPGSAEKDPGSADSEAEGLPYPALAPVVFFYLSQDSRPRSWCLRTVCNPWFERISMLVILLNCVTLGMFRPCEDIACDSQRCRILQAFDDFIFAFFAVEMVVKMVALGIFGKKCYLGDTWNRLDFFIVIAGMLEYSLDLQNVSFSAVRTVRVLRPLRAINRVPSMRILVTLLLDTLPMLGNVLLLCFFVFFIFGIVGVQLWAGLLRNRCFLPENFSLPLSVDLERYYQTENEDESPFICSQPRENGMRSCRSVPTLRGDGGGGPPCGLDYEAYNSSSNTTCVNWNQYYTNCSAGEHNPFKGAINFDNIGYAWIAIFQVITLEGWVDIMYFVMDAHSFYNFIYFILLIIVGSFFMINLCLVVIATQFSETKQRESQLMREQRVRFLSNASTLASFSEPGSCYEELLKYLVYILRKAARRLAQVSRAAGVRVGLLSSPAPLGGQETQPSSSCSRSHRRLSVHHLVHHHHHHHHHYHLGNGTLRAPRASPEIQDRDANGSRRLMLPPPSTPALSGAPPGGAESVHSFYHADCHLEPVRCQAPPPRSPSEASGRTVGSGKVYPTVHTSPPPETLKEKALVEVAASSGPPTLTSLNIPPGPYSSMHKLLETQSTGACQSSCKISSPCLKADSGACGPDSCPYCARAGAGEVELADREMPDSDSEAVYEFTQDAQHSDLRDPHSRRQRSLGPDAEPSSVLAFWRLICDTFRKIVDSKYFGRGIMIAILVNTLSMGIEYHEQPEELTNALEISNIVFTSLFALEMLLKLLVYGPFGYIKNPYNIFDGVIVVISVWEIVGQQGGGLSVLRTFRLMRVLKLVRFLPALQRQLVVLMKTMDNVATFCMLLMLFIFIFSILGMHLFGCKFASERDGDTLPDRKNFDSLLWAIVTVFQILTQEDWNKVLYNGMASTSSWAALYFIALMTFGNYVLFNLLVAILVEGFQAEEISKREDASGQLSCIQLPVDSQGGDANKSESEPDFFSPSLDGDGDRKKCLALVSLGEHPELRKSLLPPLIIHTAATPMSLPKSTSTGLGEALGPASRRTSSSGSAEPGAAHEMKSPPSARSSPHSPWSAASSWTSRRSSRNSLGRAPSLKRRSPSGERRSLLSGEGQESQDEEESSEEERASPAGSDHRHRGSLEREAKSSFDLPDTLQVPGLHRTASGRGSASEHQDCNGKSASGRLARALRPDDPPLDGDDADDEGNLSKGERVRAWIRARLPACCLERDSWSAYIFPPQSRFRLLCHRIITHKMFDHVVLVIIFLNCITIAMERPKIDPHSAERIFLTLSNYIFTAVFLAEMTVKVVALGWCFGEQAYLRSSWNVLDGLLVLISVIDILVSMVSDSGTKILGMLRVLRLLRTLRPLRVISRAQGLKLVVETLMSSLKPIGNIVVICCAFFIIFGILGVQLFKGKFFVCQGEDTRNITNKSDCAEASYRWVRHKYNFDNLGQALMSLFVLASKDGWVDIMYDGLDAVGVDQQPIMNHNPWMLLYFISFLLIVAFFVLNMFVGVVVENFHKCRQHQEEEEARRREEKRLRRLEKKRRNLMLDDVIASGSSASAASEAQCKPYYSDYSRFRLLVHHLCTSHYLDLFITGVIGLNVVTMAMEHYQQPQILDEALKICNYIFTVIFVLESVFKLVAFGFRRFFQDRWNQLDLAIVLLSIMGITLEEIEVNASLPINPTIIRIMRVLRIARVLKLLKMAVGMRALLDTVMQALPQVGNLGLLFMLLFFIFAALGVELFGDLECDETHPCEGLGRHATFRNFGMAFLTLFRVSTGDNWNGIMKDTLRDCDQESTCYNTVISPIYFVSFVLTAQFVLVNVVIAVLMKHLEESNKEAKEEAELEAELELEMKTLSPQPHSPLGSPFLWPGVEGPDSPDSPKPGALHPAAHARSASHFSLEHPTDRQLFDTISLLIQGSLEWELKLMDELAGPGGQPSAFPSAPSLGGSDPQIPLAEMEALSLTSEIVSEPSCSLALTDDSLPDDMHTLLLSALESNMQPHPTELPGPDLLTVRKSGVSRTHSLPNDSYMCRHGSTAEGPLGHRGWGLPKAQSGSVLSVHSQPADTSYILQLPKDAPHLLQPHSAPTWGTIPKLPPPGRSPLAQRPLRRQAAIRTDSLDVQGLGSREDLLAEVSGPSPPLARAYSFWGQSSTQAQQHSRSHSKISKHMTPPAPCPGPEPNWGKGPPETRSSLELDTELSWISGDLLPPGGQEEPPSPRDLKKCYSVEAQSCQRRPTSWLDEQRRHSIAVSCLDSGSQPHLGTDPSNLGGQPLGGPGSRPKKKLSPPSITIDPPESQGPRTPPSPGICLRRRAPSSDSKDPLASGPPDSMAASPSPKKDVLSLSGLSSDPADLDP
Description: Standard patch-clamp techniques were employed to identify blockers of T-type currents. Briefly, previously described HEK cell lines stably expressing human α1G T-type channels were used for all the recordings (passage #: 4-20, 37° C., 5% CO2). To obtain T-type currents, plastic dishes containing semi-confluent cells were positioned on the stage of a ZEISS AXIOVERT S100 microscope after replacing the culture medium with external solution (see below). Whole-cell patches were obtained using pipettes (borosilicate glass with filament, O.D.: 1.5 mm, I.D.: 0.86 mm, 10 cm length), fabricated on a SUTTER P-97 puller with resistance values of ˜5 M• (see below for internal solution).
In the non-inactivating protocol, the holding potential is set at −110 mV and with a pre-pulse at −100 mV for 1 second prior to the test pulse at −40 mV for 50 ms. […]
Test compounds were dissolved in external solution, 0.1-0.01% DMSO. After ˜10 min rest, they were applied by gravity close to the cell using a WPI microfil tubing. The “non-inactivated” pre-pulse was used to examine the resting block of a compound. The “inactivated” protocol was employed to study voltage-dependent block. However, the initial data shown below were mainly obtained using the non-inactivated protocol only. IC50 values are shown for various compounds of the invention in Table 5.

[3] = test system: T-type over L-type channels; settings: literature statement (Heady et al. 2001); cited from earlier work
[4] = low frequency stimulation 0.067 Hz (tonic block), read-out: IC50 @ 0.067 Hz
[5] = pulse frequency 0.2 Hz (frequency dependent block), read-out: IC50 @ 0.2 Hz
[6] = inactivation protocol (voltage-dependent block), read-out: IC50 @ −80 mV
[7] = non-inactivating protocol, pre-pulse −100 mV (resting block), read-out: IC50 @ −100 mV

SMILES | pIC50 [1, 4] | pIC50 [1, 5] | pIC50 [2, 6] | pIC50 [2, 7] | selective for T-type over L-type channels [3]
c1ccc(-c2cc(CN3CCN(C(c4ccccc4)c4ccccc4)CC3)on2)cc1 [Compound 2, 5-((4-benzhydrylpiperazin-1-yl)methyl)-3-phenylisoxazole] | 5.77 | 6.17 | 6.46 | 5.80 | –
O=C(c1cc(-c2ccccc2F)no1)N1CCN(C(c2ccccc2)c2ccccc2)CC1 [Compound 3, (4-benzhydrylpiperazin-1-yl)(3-(2-fluorophenyl)isoxazol-5-yl)methanone] | 6.10 | 6.43 | – | – | –
COc1ccccc1-c1cc(CN2CCN(C(c3ccccc3)c3ccccc3)CC2)on1 [Compound 5, 5-((4-benzhydry1piperazin-1-yl)methyl)-3-(2-methoxyphenyl)isoxazole] | 6.17 | 6.47 | – | – | –
Fc1ccccc1-c1cc(CN2CCN(C(c3ccccc3)c3ccccc3)CC2)on1 [Compound 6, 5-((4-benzhydry1piperazin-1-yl)methyl)-3-(2-fluorophenyl)isoxazole] | 5.47 | 5.96 | – | – | –
O=C(CC(c1ccccc1)c1ccccc1)N1CCN(Cc2cc(-c3ccccc3F)no2)CC1 [Compound 7, 1-(4-((3-(2-fluorophenyl)isoxazol-5-yl)methyl)piperazin-1-yl)-3,3-diphenylpropan-1-one] | 6.28 | 6.48 | – | – | –
O=C(CC(c1ccccc1)c1ccccc1)N1CCN(Cc2cc(-c3ccccc3)no2)CC1 [Compound 9, 3,3-diphenyl-1-(4-((3-phenylisoxazol-5-yl)methyl)piperazin-1-yl)propan-1-one] | 5.55 | 5.92 | 5.77 | < 5.00 | –
Cc1ccc(C(c2ccccc2)N2CCN(Cc3cc(-c4ccccc4)no3)CC2)c(C)c1 (stereo not drawn) [Compound 10, 5-((4-((2,4-dimethylphenyl)(phenyl)methyl)piperazin-1-yl)methyl)-3-phenylisoxazole] | 5.97 | 6.40 | 5.66 | 5.04 | –
Cc1ccc(C(c2ccccc2)N2CCN(C(=O)c3cc(-c4ccccc4F)no3)CC2)c(C)c1 (stereo not drawn) [Compound 11, (4-((2,4-dimethylphenyl)(phenyl)methyl)piperazin-1-yl)(3-(2-fluorophenyl)isoxazol-5-yl)methanone] | 5.66 | 5.95 | 5.56 | 4.83 | –
Clc1ccc(C(c2ccccc2)N2CCN(Cc3cc(-c4ccccc4)no3)CC2)c(Cl)c1 (stereo not drawn) [Compound 14, 5-((4-((2,4-dichlorophenyl)(phenyl)methyl)piperazin-1-yl)methyl)-3-phenylisoxazole] | 4.65 | 5.65 | 5.26 | < 4.78 | –
O=C(c1cc(-c2ccccc2F)no1)N1CCN(C(c2ccccc2)c2ccc(Cl)cc2Cl)CC1 (stereo not drawn) [Compound 15, (4-((2,4-dichlorophenyl)(phenyl)methyl)piperazin-1-yl)(3-(2-fluorophenyl)isoxazol-5-yl)methanone] | 5.19 | 5.47 | – | – | –
COCC(=O)O[C@]1(CCN(C)CCCc2nc3ccccc3[nH]2)CCc2cc(F)ccc2[C@@H]1C(C)C [Mibefradil] | – | – | – | – | 10-30 fold

Continued, in another order:

pIC50 [1, 4] | pIC50 [1, 5] | pIC50 [2, 6] | pIC50 [2, 7] | SMILES | selective for T-type over L-type channels [3]
6.19 | 6.54 | 5.72 | < 5.00 | O=C(c1cc(-c2ccccc2)no1)N1CCN(C(c2ccccc2)c2ccccc2)CC1 [Compound 1, (4-benzhydrylpiperazin-1-yl)(3-phenylisoxazol-5-yl)methanone] | –
5.52 | 5.83 | – | – | COc1ccccc1-c1cc(C(=O)N2CCN(C(c3ccccc3)c3ccccc3)CC2)on1 [Compound 4, (4-benzhydrylpiperazin-1-yl)(3-(2-methoxyphenyl)isoxazol-5-yl)methanone] | –
6.22 | 6.54 | – | – | COc1ccccc1-c1cc(CN2CCN(C(=O)CC(c3ccccc3)c3ccccc3)CC2)on1 [Compound 8, 1-(4-((3-(2-methoxyphenyl)isoxazol-5-yl)methyl)piperazin-1-yl)-3,3-diphenylpropan-1-one] | –
6.02 | 6.24 | 6.08 | 5.43 | Cc1ccc(C(c2ccccc2)N2CCN(Cc3cc(-c4ccccc4F)no3)CC2)c(C)c1 (stereo not drawn) [Compound 12, 5-((4-((2,4-dimethylphenyl)(phenyl)methyl)piperazin-1-yl)methyl)-3-(2-fluorophenyl)isoxazole] | –
5.50 | 5.71 | – | – | Fc1ccccc1-c1cc(CN2CCN(C(c3ccccc3)c3ccc(Cl)cc3Cl)CC2)on1 (stereo not drawn) [Compound 16, 5-((4-((2,4-dichlorophenyl)(phenyl)methyl)piperazin-1-yl)methyl)-3-(2-fluorophenyl) isoxazole] | –
